Values of other authors, collected in US20220168408A1, “MULTI-VALENT IMMUNOTHERAPY COMPOSITION AND METHODS OF USE FOR TREATING WT1-POSITIVE CANCERS” (SLSG LIMITED LLC, priority 2019, published 2022).

Test system: CD4+ and CD8+ responses
Settings: according to data from preclinical and phase 1 studies

SGQAYMFPNAPYLPSCLES (Mutated Homo sapiens) [WT1-122A1 long]
stimulation of CD4+ and CD8+ responses: stimulate both CD4+ and CD8+ responses
